Where “and” joins values, the source holds several entries; their conditions need not be identical. Equal entries are not always repeated.
Columns and labels:
Assay in all cases: CYP51 reconstitution assay
Type in all cases: biochemical
CaCYP51 D278N+G464S = target: T1, CaCYP51 D278N+G464S (Candida albicans, UniProt P10613, D278N/G464S)
T1 construct: made in house; host or cells: E. coli DH5α (pCWori+)
Protocol: (§1) Azole antifungal agents were added in 2.5 μl dimethyl sulfoxide, followed by 10 min of incubation at 37°C prior to assay initiation with 4 mM β-NADPH-Na4. The samples were then shaken for 15 min at 37°C. Sterol metabolites were recovered by extraction with ethyl acetate, followed by derivatization with 0.1 ml N,O-bis(trimethylsilyl)trifluoroacetamide (BSTFA)–trimethylchlorosilane (TMCS) (99:1) and 0.3 ml anhydrous pyridine (2 h at 80°C), prior to analysis by gas chromatography-mass spectrometry (GC-MS) ([52]). IC50 determinations were performed in duplicate.

CaCYP51 F449Y = target: T2, CaCYP51 F449Y (Candida albicans, UniProt P10613, F449Y)
T2 construct: made in house; host or cells: E. coli DH5α (pCWori+)
Protocol: as §1

CaCYP51 G307S+G450E = target: T3, CaCYP51 G307S+G450E (Candida albicans, UniProt P10613, G307S/G450E)
T3 construct: made in house; host or cells: E. coli DH5α (pCWori+)
Protocol: as §1

CaCYP51 V437I = target: T4, CaCYP51 V437I (Candida albicans, UniProt P10613, V437I)
T4 construct: made in house; host or cells: E. coli DH5α (pCWori+)
Protocol: as §1

CaCYP51 F126V = target: T5, CaCYP51 F126V (Candida albicans, UniProt P10613, F126V)
T5 construct: made in house; host or cells: E. coli DH5α (pCWori+)
Protocol: as §1

CaCYP51 Y132H+K143R = target: T6, CaCYP51 Y132H+K143R (Candida albicans, UniProt P10613, K143R/Y132H)
T6 construct: made in house; host or cells: E. coli DH5α (pCWori+)
Protocol: as §1

CaCYP51 Y257H = target: T7, CaCYP51 Y257H (Candida albicans, UniProt P10613, Y257H)
T7 construct: made in house; host or cells: E. coli DH5α (pCWori+)
Protocol: as §1

CaCYP51 V456I = target: T8, CaCYP51 V456I (Candida albicans, UniProt P10613, V456I)
T8 construct: made in house; host or cells: E. coli DH5α (pCWori+)
Protocol: as §1

CaCYP51 S405F = target: T9, CaCYP51 S405F (Candida albicans, UniProt P10613, S405F)
T9 construct: made in house; host or cells: E. coli DH5α (pCWori+)
Protocol: as §1

CaCYP51 D278N = target: T10, CaCYP51 D278N (Candida albicans, UniProt P10613, D278N)
T10 construct: made in house; host or cells: E. coli DH5α (pCWori+)
Protocol: as §1

CaCYP51 F145L = target: T11, CaCYP51 F145L (Candida albicans, UniProt P10613, F145L)
T11 construct: made in house; host or cells: E. coli DH5α (pCWori+)
Protocol: as §1

CaCYP51 G307S = target: T12, CaCYP51 G307S (Candida albicans, UniProt P10613, G307S)
T12 construct: made in house; host or cells: E. coli DH5α (pCWori+)
Protocol: as §1

CaCYP51 Q474K = target: T13, CaCYP51 Q474K (Candida albicans, UniProt P10613, Q474K)
T13 construct: made in house; host or cells: E. coli DH5α (pCWori+)
Protocol: as §1

CaCYP51 K143R = target: T14, CaCYP51 K143R (Candida albicans, UniProt P10613, K143R)
T14 construct: made in house; host or cells: E. coli DH5α (pCWori+)
Protocol: as §1

CaCYP51 P230L = target: T15, CaCYP51 P230L (Candida albicans, UniProt P10613, P230L)
T15 construct: made in house; host or cells: E. coli DH5α (pCWori+)
Protocol: as §1

CaCYP51 Y447H = target: T16, CaCYP51 Y447H (Candida albicans, UniProt P10613, Y447H)
T16 construct: made in house; host or cells: E. coli DH5α (pCWori+)
Protocol: as §1

CaCYP51 Wild type = target: T17, CaCYP51 Wild type (Candida albicans, UniProt P10613); conditions: Wild type
T17 construct: made in house; host or cells: E. coli DH5α (pCWori+)
Protocol: as §1

CaCYP51 G450E = target: T18, CaCYP51 G450E (Candida albicans, UniProt P10613, G450E)
T18 construct: made in house; host or cells: E. coli DH5α (pCWori+)
Protocol: as §1

CaCYP51 Y132F = target: T19, CaCYP51 Y132F (Candida albicans, UniProt P10613, Y132F); conditions: mean ± SD, duplicate
T19 construct: made in house; host or cells: E. coli DH5α (pCWori+)
Protocol: as §1

CaCYP51 G448E = target: T20, CaCYP51 G448E (Candida albicans, UniProt P10613, G448E)
T20 construct: made in house; host or cells: E. coli DH5α (pCWori+)
Protocol: as §1

CaCYP51 S279F = target: T21, CaCYP51 S279F (Candida albicans, UniProt P10613, S279F)
T21 construct: made in house; host or cells: E. coli DH5α (pCWori+)
Protocol: as §1

CaCYP51 V488I = target: T22, CaCYP51 V488I (Candida albicans, UniProt P10613, V488I)
T22 construct: made in house; host or cells: E. coli DH5α (pCWori+)
Protocol: as §1

CaCYP51 G464S = target: T23, CaCYP51 G464S (Candida albicans, UniProt P10613, G464S)
T23 construct: made in house; host or cells: E. coli DH5α (pCWori+)
Protocol: as §1

CaCYP51 Y132H = target: T24, CaCYP51 Y132H (Candida albicans, UniProt P10613, Y132H)
T24 construct: made in house; host or cells: E. coli DH5α (pCWori+)
Protocol: as §1

CaCYP51 I471T = target: T25, CaCYP51 I471T (Candida albicans, UniProt P10613, I471T)
T25 construct: made in house; host or cells: E. coli DH5α (pCWori+)
Protocol: as §1

CaCYP51 R467K = target: T26, CaCYP51 R467K (Candida albicans, UniProt P10613, R467K)
T26 construct: made in house; host or cells: E. coli DH5α (pCWori+)
Protocol: as §1

CaCYP51 Y132F+K143R = target: T27, CaCYP51 Y132F+K143R (Candida albicans, UniProt P10613, K143R/Y132F)
T27 construct: made in house; host or cells: E. coli DH5α (pCWori+)
Protocol: as §1

CaCYP51 Y132F+F145L = target: T28, CaCYP51 Y132F+F145L (Candida albicans, UniProt P10613, F145L/Y132F)
T28 construct: made in house; host or cells: E. coli DH5α (pCWori+)
Protocol: as §1

[1] = 0.25 h, 4 μM triazole, % of activity without triazole, read-out: Residual CYP51 activity (%) ± SD
[2] = 0.25 h, read-out: Residual CYP51 activity (%) ± SD

T17 sequence (P10613 whole entry, looked up, natural form): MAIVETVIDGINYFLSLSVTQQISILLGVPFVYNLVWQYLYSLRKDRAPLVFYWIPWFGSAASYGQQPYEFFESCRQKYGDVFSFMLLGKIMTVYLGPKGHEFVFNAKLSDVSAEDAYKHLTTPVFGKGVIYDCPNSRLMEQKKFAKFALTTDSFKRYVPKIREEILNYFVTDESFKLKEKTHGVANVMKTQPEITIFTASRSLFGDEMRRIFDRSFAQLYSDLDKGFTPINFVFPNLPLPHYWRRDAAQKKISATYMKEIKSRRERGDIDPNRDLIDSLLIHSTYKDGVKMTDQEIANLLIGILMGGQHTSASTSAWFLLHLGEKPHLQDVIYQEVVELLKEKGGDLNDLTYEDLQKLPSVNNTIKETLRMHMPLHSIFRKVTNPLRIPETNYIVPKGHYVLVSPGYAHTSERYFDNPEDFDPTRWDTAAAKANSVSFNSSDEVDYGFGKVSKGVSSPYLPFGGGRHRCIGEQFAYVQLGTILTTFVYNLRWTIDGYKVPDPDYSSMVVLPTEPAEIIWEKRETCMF
T1 sequence (P10613 whole entry, looked up, stated change not applied): as the sequence (P10613 whole entry, looked up, natural form) above
T9 sequence (P10613 whole entry, looked up, stated change not applied): as the sequence (P10613 whole entry, looked up, natural form) above
T15 sequence (P10613 whole entry, looked up, stated change not applied): as the sequence (P10613 whole entry, looked up, natural form) above
T24 sequence (P10613 whole entry, looked up, stated change not applied): as the sequence (P10613 whole entry, looked up, natural form) above
T23 sequence (P10613 whole entry, looked up, stated change not applied): as the sequence (P10613 whole entry, looked up, natural form) above
T21 sequence (P10613 whole entry, looked up, stated change not applied): as the sequence (P10613 whole entry, looked up, natural form) above
T14 sequence (P10613 whole entry, looked up, stated change not applied): as the sequence (P10613 whole entry, looked up, natural form) above
T11 sequence (P10613 whole entry, looked up, stated change not applied): as the sequence (P10613 whole entry, looked up, natural form) above

CC[C@@H]([C@H](C)O)n1ncn(-c2ccc(N3CCN(c4ccc(OC[C@@H]5CO[C@@](Cn6cncn6)(c6ccc(F)cc6F)C5)cc4)CC3)cc2)c1=O [Posaconazole, posaconazole]
fold increase in IC50 over wild-type enzyme (CaCYP51 D278N+G464S): 4.8 fold | remaining activity at 4 µM (CaCYP51 D278N+G464S; [1]): 15 ± 1.16% | IC50 (CaCYP51 D278N+G464S; mean ± SD, duplicate): 930 ± 9 nM | remaining activity at 4 µM (CaCYP51 F449Y; [1]): 5.42 ± 0.04% | IC50 (CaCYP51 F449Y; mean ± SD, duplicate): 366 ± 37 nM | remaining activity at 4 µM (CaCYP51 G307S+G450E; [1]): 0.26 ± 0.11% | IC50 (CaCYP51 G307S+G450E; mean ± SD, duplicate): 312 ± 15 nM | remaining activity at 4 µM (CaCYP51 V437I; [1]): 0.59 ± 0.2% | IC50 (CaCYP51 V437I; mean ± SD, duplicate): 319 ± 9 nM | remaining activity at 4 µM (CaCYP51 F126V; [1]): 0.1 ± 0.01% | IC50 (CaCYP51 F126V; mean ± SD, duplicate): 304 ± 70 nM | remaining activity at 4 µM (CaCYP51 Y132H+K143R; [1]): 0.74 ± 0.05% | IC50 (CaCYP51 Y132H+K143R; mean ± SD, duplicate): 196 ± 7 nM | remaining activity at 4 µM (CaCYP51 Y257H; [1]): 6.42 ± 0.59% | IC50 (CaCYP51 Y257H; mean ± SD, duplicate): 611 ± 17 nM | remaining activity at 4 µM (CaCYP51 V456I; [1]): 6.66 ± 0.05% | IC50 (CaCYP51 V456I; mean ± SD, duplicate): 602 ± 17 nM | remaining activity at 4 µM (CaCYP51 S405F; [1]): 9.38 ± 0.53% | IC50 (CaCYP51 S405F; mean ± SD, duplicate): 637 ± 54 nM | remaining activity at 4 µM (CaCYP51 D278N; [1]): 14.8 ± 0.92% | IC50 (CaCYP51 D278N; mean ± SD, duplicate): 908 ± 20 nM | remaining activity at 4 µM (CaCYP51 F145L; [1]): 1.37 ± 1.21% | IC50 (CaCYP51 F145L; mean ± SD, duplicate): 359 ± 18 nM | remaining activity at 4 µM (CaCYP51 G307S; [1]): 0.71 ± 0.04% | IC50 (CaCYP51 G307S; mean ± SD, duplicate): 288 ± 42 nM | remaining activity at 4 µM (CaCYP51 Q474K; [1]): 3.23 ± 0.18% | IC50 (CaCYP51 Q474K; mean ± SD, duplicate): 301 ± 17 nM | remaining activity at 4 µM (CaCYP51 K143R; [1]): 13.09 ± 0.02% | IC50 (CaCYP51 K143R; mean ± SD, duplicate): 789 ± 3 nM | remaining activity at 4 µM (CaCYP51 P230L; [1]): 0.21 ± 0.05% | IC50 (CaCYP51 P230L; mean ± SD, duplicate): 238 ± 2 nM | remaining activity at 4 µM (CaCYP51 Y447H; [1]): 8.19 ± 3.58% | IC50 (CaCYP51 Y447H; mean ± SD, duplicate): 439 ± 135 nM | remaining activity at 4 µM (CaCYP51 Wild type; [1]): 0.66 ± 0.02% | IC50 (CaCYP51 Wild type; mean ± SD, duplicate, read-out: IC50): 200 nM and 195 nM | remaining activity at 4 µM (CaCYP51 G450E; [1]): 15.6 ± 0.21% | IC50 (CaCYP51 G450E; mean ± SD, duplicate): 908 ± 132 nM | IC50 (CaCYP51 Y132F): 343 ± 20 nM | remaining activity at 4 µM (CaCYP51 G448E; [1]): 7.89 ± 0.29% | IC50 (CaCYP51 G448E; mean ± SD, duplicate): 542 ± 51 nM | remaining activity at 4 µM (CaCYP51 S279F; [1]): 20.64 ± 0.1% | IC50 (CaCYP51 S279F; mean ± SD, duplicate): 912 ± 16 nM | remaining activity at 4 µM (CaCYP51 V488I; [1]): 2.11 ± 0.14% | IC50 (CaCYP51 V488I; mean ± SD, duplicate): 481 ± 52 nM | remaining activity at 4 µM (CaCYP51 G464S; [1]): 0.54 ± 0.09% | IC50 (CaCYP51 G464S; mean ± SD, duplicate): 253 ± 24 nM | remaining activity at 4 µM (CaCYP51 Y132H; [1]): 0.18 ± 0.06% | IC50 (CaCYP51 Y132H; mean ± SD, duplicate): 195 ± 3 nM | remaining activity at 4 µM (CaCYP51 I471T; [1]): 7.71 ± 0.58% | IC50 (CaCYP51 I471T; mean ± SD, duplicate): 522 ± 64 nM | remaining activity at 4 µM (CaCYP51 R467K; [1]): 3.62 ± 0.09% | IC50 (CaCYP51 R467K; mean ± SD, duplicate): 380 ± 11 nM | IC50 (CaCYP51 Y132F+K143R): 246 ± 24 nM | remaining activity at 4 µM (CaCYP51 Y132F+K143R; [2]): 0.86 ± 0.11% | IC50 (CaCYP51 Y132F+F145L): 433 ± 102 nM | remaining activity at 4 µM (CaCYP51 Y132F+F145L; [2]): 2.64 ± 0.08%
